The text below walks through data of patent US20260174744A1, “COMPOUNDS, COMPOSITIONS, AND METHODS OF TREATING RNA VIRAL INFECTIONS” (priority 2024, published 2026).

Test [1] concerns SARS-CoV-2 variants, Alphacoronavirus, Betacoronavirus, HCV, NoV, IAV, IAB. In words: organism not typed. The following applies: read-out: EC50 against remaining viruses.
The test system is the same in test [2].

Structures are written as SMILES. pEC50: −log10 of the molar value.

In general, pEC50 refers to the EC50 on a negative log10 scale, so that one unit is a factor of ten. For `Cc1c(-c2ccc(O)cc2)n(Cc2ccc(OCCN3CCCCC3)cc2)c2ccc(O)cc12` [Pipendoxifene], in test [1], the pEC50 was 5.10 to 5.52. Besides, the “potency against six SARS-CoV-2 variants and two coronaviruses” value in test [2] is given as “submicromolar potency”.
